The assay deals with Ubiquitin carboxyl-terminal hydrolase 8 (Homo sapiens) (UniProt P40818). Put plainly: Ubiquitin-specific protease 8 inhibitors, concentration-effect, biochemical, validation of initial actives (AID 1645862).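 Further: potency reflects inhibition of USP8 cleavage of a ubiquitin rhodamine substrate.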 Conditions: recombinant USP8 deubiquitinase activity assay.

This note sets out measurements from PubChem BioAssay AID1645862 (Buhrlage Lab, Dana-Farber Cancer Institute and Novartis …, 2021).

Activity calls are given as the source filed them. How the calls were made is not given here.

Chain of Ubiquitin carboxyl-terminal hydrolase 8 (Homo sapiens) (P40818 whole entry, looked up): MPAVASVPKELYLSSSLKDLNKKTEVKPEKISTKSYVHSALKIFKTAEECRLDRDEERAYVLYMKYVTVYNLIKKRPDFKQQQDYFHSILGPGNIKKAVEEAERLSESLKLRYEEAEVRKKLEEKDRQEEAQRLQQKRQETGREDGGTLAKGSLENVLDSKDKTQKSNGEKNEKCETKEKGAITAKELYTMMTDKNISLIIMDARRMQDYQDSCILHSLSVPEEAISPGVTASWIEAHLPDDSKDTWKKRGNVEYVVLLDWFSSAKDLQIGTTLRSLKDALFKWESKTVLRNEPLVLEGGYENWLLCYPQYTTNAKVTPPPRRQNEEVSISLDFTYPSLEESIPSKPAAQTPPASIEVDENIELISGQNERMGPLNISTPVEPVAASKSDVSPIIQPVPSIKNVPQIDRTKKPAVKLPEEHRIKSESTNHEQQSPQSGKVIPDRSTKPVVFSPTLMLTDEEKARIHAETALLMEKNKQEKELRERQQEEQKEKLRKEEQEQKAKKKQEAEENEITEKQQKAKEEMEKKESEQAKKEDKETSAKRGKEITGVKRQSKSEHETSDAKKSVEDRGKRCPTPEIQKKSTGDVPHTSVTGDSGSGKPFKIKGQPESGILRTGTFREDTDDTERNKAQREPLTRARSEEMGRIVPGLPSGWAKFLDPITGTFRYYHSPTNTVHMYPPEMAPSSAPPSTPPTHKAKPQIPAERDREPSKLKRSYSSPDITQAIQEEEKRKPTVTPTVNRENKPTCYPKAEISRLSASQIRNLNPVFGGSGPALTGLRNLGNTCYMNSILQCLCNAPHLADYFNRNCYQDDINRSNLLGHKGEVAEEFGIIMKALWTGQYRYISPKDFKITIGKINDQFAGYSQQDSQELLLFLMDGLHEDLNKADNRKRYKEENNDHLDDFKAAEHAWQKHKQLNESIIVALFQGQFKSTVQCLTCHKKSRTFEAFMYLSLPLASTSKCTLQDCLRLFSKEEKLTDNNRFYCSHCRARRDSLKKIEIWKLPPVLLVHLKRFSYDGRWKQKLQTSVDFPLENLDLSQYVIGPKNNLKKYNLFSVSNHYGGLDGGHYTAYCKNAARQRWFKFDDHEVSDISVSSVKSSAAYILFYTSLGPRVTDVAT

In the case of `Cc1cc(N2CCOCC2)nc(N2CCN(C(=O)C(C)Oc3ccccc3)CC2)n1` (configuration not stated), the IC50 (as a rule, the concentration that inhibits the measured activity by half) was > 40 µM (inactive).

`Cc1cc(Nc2cccc(Cl)c2)n2nc(-c3cccnc3)nc2n1`: the IC50 was > 40 µM (inactive).

On to `CCOc1ccc(NC(=O)Cn2c(=O)n(CCC(=O)NCc3ccco3)c(=O)c3ccccc32)cc1`, for which the IC50 was > 40 µM (inactive).

For the compound `Fc1cccc(Nc2ncnc3c2oc2ccccc23)c1`, the IC50 is > 40 µM (inactive).

As for `Cc1ccc(NCc2cc3c(-c4cccc(F)c4)nn(-c4ccccc4)c3[nH]c2=O)cc1C`, the IC50 is > 40 µM (inactive).

For `COc1ccc(C2/C(=C(\O)c3ccccc3)C(=O)C(=O)N2c2nc3ccc(F)cc3s2)cc1` (configuration not stated), the half-maximal inhibitory concentration (IC50) is 27.2 µM.

`CCOc1ccc(S(=O)(=O)Nc2ccc[nH]c2=O)cc1`: the IC50 is > 40 µM (inactive).

On to `O=C(NCCc1nc2ccccc2n1CCCOc1ccccc1Cl)C1CCCCC1`, for which the IC50 is > 40 µM (inactive).

`O=C(CSc1nnc2c3ccccc3nc(-c3ccco3)n12)N1CCCc2ccccc21`: the IC50 is > 40 µM (inactive).

Turning to `N#Cc1ccc(NC(=O)Nc2cccn(Cc3ccc(F)cc3)c2=O)cc1`, the IC50 is > 40 µM (inactive).

`COc1cccc(NC(=O)C2C3C=CC4(O3)C2C(=O)N(CCc2ccc(Cl)cc2)C4C(=O)NC2CCCCC2)c1` (configuration not stated): the IC50 was > 40 µM (inactive).

With `COc1ccccc1CNC(=O)CCCCn1c(=O)c2ccccc2n(Cc2ccc(C)cc2)c1=O`, the IC50 was > 40 µM (inactive).

On to `COC(=O)c1ccccc1NC(=O)Cn1c(=O)n(Cc2ccc(C(=O)NCc3ccco3)cc2)c(=O)c2ccccc21`, for which the IC50 is > 40 µM (inactive).

Turning to `Cn1cc(C(=O)NCC2COc3ccccc3O2)c(=O)c2cc(S(=O)(=O)N3CCCCC3)ccc21` (configuration not stated), the IC50 was > 40 µM (inactive).

Consider `O=C(COc1ccc(C2CCCCC2)cc1)Nc1ccc(-c2nn3cnnc3s2)cc1`, for which the IC50 is > 40 µM (inactive).

Turning to `Cc1nn(-c2ccccc2)c2c1N=C1C(Cl)=CC(Cl)=CN1C21C(=O)Nc2ccccc21` (configuration not stated), the IC50 was > 40 µM (inactive).

`COc1ccc(-c2n[nH]n3c2nc(=O)c2ccc(C(=O)NCc4ccco4)cc23)cc1`: the IC50 was > 40 µM (inactive).

Take `COc1ccccc1Nc1ncc(C(=O)NCc2ccc(F)cc2)c2ccccc12`: the IC50 was > 40 µM (inactive).

Take `Cc1ccc(Nc2nc(O)c(CC(=O)Nc3ccccc3C)s2)cc1C`: the IC50 is > 40 µM (inactive).

As to `N#Cc1cccc(NC(=O)c2[nH]nc3c2COc2ccccc2-3)c1`, the IC50 was 38.3 µM.

Consider `Cc1cc(Cl)ccc1NC(=O)c1cc(-c2cccnc2)n[nH]1`, for which the IC50 is > 40 µM (inactive).

As to `O=C1c2ccccc2-c2nnc(-c3ccncc3)cc21`, the IC50 is 14 µM.

Take `Brc1ccc(Nc2nc(-c3ccccn3)nc3ccccc23)cc1`: the half-maximal inhibitory concentration (IC50) is 16.6 µM.

Turning to `O=c1c(S(=O)(=O)c2cc(F)cc(F)c2)c[nH]c2cc(Cl)ccc12`, the IC50 is 25.6 µM.

For the compound `Cc1[nH]nc(NC(=O)C2COc3ccccc3O2)c1-c1ccccc1` (configuration not stated), the IC50 is 37.3 µM.

Regarding `COc1ccc(CNC(=O)C(C)n2nc(-c3ccco3)c(-c3cc(C)no3)cc2=O)cc1` (configuration not stated), the IC50 is > 40 µM (inactive).

`Cc1cc(=O)[nH]c(SCC(=O)c2cc(C)n(CCC3=CCCCC3)c2C)c1C#N`: the IC50 is > 40 µM (inactive).

With `O=S1(=O)CCN(Cc2cccnc2)c2c(F)nc(N3CCOCC3)c(F)c21`, the IC50 is > 40 µM (inactive).

On to `Cc1c(C(=O)NCc2cccc(Br)c2)oc2c1-c1[nH]ncc1CC2`, for which the IC50 is > 40 µM (inactive).

`Cc1nc2cc(-c3noc(-c4cccc5[nH]ccc45)n3)ccc2o1`: the IC50 is > 40 µM (inactive).

In the case of `O=C(Nc1ccc(F)cc1F)c1cc(-c2ccccn2)n[nH]1`, the IC50 was > 40 µM (inactive).

Take `CC(C)(C)C(=O)[C@@H]1[C@@H](C(=O)c2ccc3c(c2)OCO3)[C@@]2(C(=O)Nc3ccccc32)[C@H]2c3ccccc3C=CN12`: the IC50 is 7.11 µM.

Turning to `COc1ccc(Cl)cc1NC(=O)c1nc(-c2cn(-c3ccccc3)nn2)no1`, the IC50 was > 40 µM (inactive).

In the case of `COc1ccc(NC(=O)Cn2cc(C(=O)c3ccc(Cl)cc3)c(=O)c3cc(F)ccc32)cc1`, the IC50 was > 40 µM (inactive).

On to `Cc1ccc(NC(=O)Nc2nnc(CC(=O)NCc3ccccc3)s2)c(Cl)c1`, for which the IC50 was > 40 µM (inactive).

Regarding `Cc1ccc(Cn2cc(-c3noc(C(=O)Nc4cc(F)ccc4F)n3)nn2)cc1`, the half-maximal inhibitory concentration (IC50) was 21.8 µM.

Turning to `Cn1cc(C(=O)Nc2ccccc2)c2[nH]c(=O)n(Cc3ccccc3)c(=O)c21`, the IC50 was > 40 µM (inactive).

Turning to `Cn1c(SCC(=O)c2ccc(F)cc2)nnc1-c1cc2ccccc2o1`, the IC50 was > 40 µM (inactive).

Turning to `O=c1[nH]c(C2CCN(S(=O)(=O)c3ccc(S(=O)(=O)NC4CCCCC4)cc3)CC2)nc2c1nnn2Cc1c(F)cccc1Cl`, the IC50 is > 40 µM (inactive).

Take `Fc1cc(F)c2[nH]cc(-c3nnnn3-c3ccc4ccccc4c3)c2c1`: the IC50 was > 40 µM (inactive).

For the compound `CCn1cc2c(n1)c(=O)n(Cc1ccccc1)c(=O)n2CC(=O)NCc1ccc(C)cc1`, the IC50 was > 40 µM (inactive).

Turning to `Cc1cccc(-n2ccnc(SCC(=O)Nc3ccc(Cl)cc3F)c2=O)c1`, the IC50 is > 40 µM (inactive).

Turning to `O=C(O)CCCCCN1C(=O)CC(c2ccc(Cl)cc2)CC1=O`, the half-maximal inhibitory concentration (IC50) was 31.8 µM.

With `CS(=O)(=O)c1cccc(C(=O)Nc2sc3c(c2C(N)=O)CCCC3)c1`, the IC50 was > 40 µM (inactive).

Regarding `O=C(Nc1ccc(F)cc1F)NC1CCN(c2ccccc2)C1=O` (configuration not stated), the IC50 was > 40 µM (inactive).

For `Cc1ccc(NC(=O)c2cc(-c3ccncc3)n[nH]2)cc1Cl`, the IC50 is > 40 µM (inactive).

In the case of `O=C(c1ccco1)N1CCC2(CC1)CC1(CO2)Nc2ccccc2-n2cccc21` (configuration not stated), the IC50 is 22.6 µM.

As to `COc1cccc(NC(=O)C(Sc2cccc(NC(=O)c3ccccc3F)c2)c2ccccc2)c1` (configuration not stated), the IC50 is > 40 µM (inactive).

Take `O=C(COc1ccccc1)Nc1ccc(-c2nc3cnccc3o2)c(O)c1`: the IC50 was > 40 µM (inactive).

On to `Cc1ccc(Nc2nc(Nc3cccc(F)c3)nc3nccnc23)c(C)c1`, for which the IC50 was > 40 µM (inactive).

As for `O=C(Cn1c(=O)[nH]c2ccccc2c1=O)NCc1ccccc1Cl`, the IC50 is > 40 µM (inactive).

`COc1ccc(CNc2ccc(C(=O)OCc3ccccc3F)cc2S(=O)(=O)Nc2cccc(OC)c2)cc1`: the IC50 was > 40 µM (inactive).

With `CNC(=O)c1cc2nc(N(C)C)n(-c3ccc(F)cc3)c2s1`, the IC50 is > 40 µM (inactive).

For `CC(C)CCCCCCCCCCC(=O)N(C)[C@H](CO)C(=O)N[C@H](C)C(=O)NCC(=O)N(C)C1C(=O)N[C@@H](C)C(=O)NC(C(=O)O)Cc2ccc(O)c(c2)-c2cc1ccc2O` (some centres not stated), the IC50 was > 40 µM (inactive).

Take `O=S(=O)(Nc1ccc(Oc2ncnc3cc(Cl)ccc23)nc1)c1ccc(S(=O)(=O)c2ccccc2)s1`: the IC50 is > 40 µM (inactive).

For `O=C1c2c(O)c(Cl)cc3c2[C@@]2(Oc4ccc(O)c5c4[C@]3(O2)[C@@H]2O[C@@H]2C5=O)[C@@H]2O[C@H]12`, the half-inhibitory concentration (IC50) was 1.09 µM.

Turning to `O=C(Cn1c(=O)c2ccccc2n(CC(=O)Nc2cc(Cl)cc(Cl)c2)c1=O)NCc1ccco1`, the IC50 was > 40 µM (inactive).

`COCCCN1CCS(=O)(=O)c2c(Cl)c(F)nc(Oc3ccccc3F)c21`: the IC50 is > 40 µM (inactive).

`O=C(COc1ccc(Cl)cc1)Nc1noc(-c2ccccc2)n1`: the half-maximal inhibitory concentration (IC50) was 39.3 µM.

In the case of `CCCc1nnc(NC(=O)c2cc(-c3ccccc3O)n[nH]2)s1`, the IC50 is > 40 µM (inactive).

Take `CN(C(=O)C1(c2ccccc2)CC1)c1nc2c(s1)CCc1occc1-2`: the IC50 was > 40 µM (inactive).

As to `CCn1c(CNC(=O)c2cccc(C)c2)nnc1SCC(=O)N1CCc2ccccc21`, the IC50 is > 40 µM (inactive).

Take `O=c1c2ccccc2oc2nc(-c3cccs3)n(-c3ccccc3)c(=O)c12`: the 50% inhibitory concentration (IC50) is 2.3 µM.

Consider `CC(=O)N1CCc2cc(S(=O)(=O)NC(Cc3ccccc3)C(=O)Nc3cccc(Cl)c3C)ccc21` (configuration not stated), for which the IC50 is > 40 µM (inactive).

As to `CC(C)=CCc1c2c(c3occ(-c4ccc(O)cc4)c(=O)c3c1O)C=CC(C)(C)O2`, the IC50 was > 40 µM (inactive).

For `O=C(Cn1c(COc2ccccc2)nc2ccccc21)Nc1ccc(N2CCOCC2)cc1`, the IC50 is > 40 µM (inactive).

Take `CC(=O)Nc1ccc(S(=O)(=O)NCc2ccc(C(=O)NCCc3ccc(Cl)cc3)cc2)cc1`: the IC50 is > 40 µM (inactive).

On to `Cc1nc2c(c(C)c1CCC(=O)Nc1ccccc1F)c(=O)n(C)c(=O)n2C`, for which the IC50 was > 40 µM (inactive).

Regarding `COc1ccc(NS(=O)(=O)c2cc(NC(=O)CC(=O)c3ccc([N+](=O)[O-])cc3)ccc2C)cc1`, the IC50 is > 40 µM (inactive).

`Cc1nn(-c2ccccc2)c2c1nc(CCC(=O)NC1CCCCC1)c(=O)n2C`: the IC50 was > 40 µM (inactive).

In the case of `Cc1nc(C(=O)NC2(O)C(=O)c3ccccc3C2=O)cs1`, the IC50 was 4.23 µM.

Consider `Oc1cccc2nc3c(O)cccc3nc12`, for which the half-maximal inhibitory concentration (IC50) was 8.85 µM.

Regarding `CCCc1nnc(C(=O)Nc2ccc(C(=O)NC(C)c3ccccc3)cc2)s1` (configuration not stated), the IC50 is > 40 µM (inactive).

For the compound `Cc1ccccc1-c1noc(-c2cn(Cc3ccc(NC(=O)Cc4ccccc4)cc3)cn2)n1`, the IC50 was > 40 µM (inactive).

On to `COc1cc(C)cc2c1C(=O)c1c(cc(O)c(Cl)c1O)C2=O`, for which the IC50 is 3.33 µM.

For the compound `O=C(Nc1ccc2snnc2c1)Nc1ccc(F)cc1F`, the IC50 was > 40 µM (inactive).

For `Cc1nnc(-c2ccc3ccn(CC(=O)N4CCN(c5ccccc5)CC4)c3c2)o1`, the IC50 was > 40 µM (inactive).

As for `COc1ccc(Cn2nc(C)cc2NC(=O)c2cccc(F)c2)cc1OC`, the IC50 was > 40 µM (inactive).

As to `CSc1cccc(C(=O)Nc2ccc(-c3nc4ccccc4[nH]3)cc2)c1`, the IC50 is > 40 µM (inactive).

On to `O=C(Nc1cccc(C(F)(F)F)c1)c1cc2c(s1)-c1ccccc1OC2`, for which the IC50 is > 40 µM (inactive).

For `O=S(=O)(c1ccccc1Cl)N1CCN(c2ccc3nnc(-c4ccco4)n3n2)CC1`, the IC50 is > 40 µM (inactive).

As for `CC(=O)c1cccc(NC(=O)COC(=O)c2sc3cc(F)ccc3c2Cl)c1`, the IC50 was > 40 µM (inactive).
